This experiment addresses His-tagged recombinant human TrkA (Homo sapiens (Human), UniProt P04629). As to the kind of experiment: TrkA LanthaScreen Eu Kinase Binding Assay. The conditions noted are these: averaged IC50; TR-FRET binding, 60 min, 22° C.; read-out: TrkA Enzyme IC50. The method, then: TrkA binding activity was determined in a TrkA LanthaScreen™ Eu Kinase Binding Assay. 5 nM His-tagged recombinant human TrkA (6HIS tagged cytoplasmic domain from Invitrogen, Catalog No. PV3144) was incubated with 4 nM Alexa-Fluor® Tracer 236 (Invitrogen Cat. No. PV5592), 2 nM biotinylated anti-His (Invitrogen Cat. No. PV6090), and 2 nM europium-labeled Streptavidin (Invitrogen Cat. No. PV5899), in buffer (25 mM MOPS, pH 7.5, 5 mM MgCl2, 0.005% Triton X-100). Three fold serial dilutions of compounds of the invention in DMSO were added to a final percentage of 2% DMSO. After 60-minute incubation at 22° C., the reaction was measured using the EnVision mutlimode plate reader (PerkinElmer) via TR-FRET dual wavelength detection at […]. The percent of control was calculated using a ratiometric emission factor. The IC50 values were determined by fitting a four parameter model to the percent of control data.
His-tagged recombinant human TrkA, sequence (P04629 440-796): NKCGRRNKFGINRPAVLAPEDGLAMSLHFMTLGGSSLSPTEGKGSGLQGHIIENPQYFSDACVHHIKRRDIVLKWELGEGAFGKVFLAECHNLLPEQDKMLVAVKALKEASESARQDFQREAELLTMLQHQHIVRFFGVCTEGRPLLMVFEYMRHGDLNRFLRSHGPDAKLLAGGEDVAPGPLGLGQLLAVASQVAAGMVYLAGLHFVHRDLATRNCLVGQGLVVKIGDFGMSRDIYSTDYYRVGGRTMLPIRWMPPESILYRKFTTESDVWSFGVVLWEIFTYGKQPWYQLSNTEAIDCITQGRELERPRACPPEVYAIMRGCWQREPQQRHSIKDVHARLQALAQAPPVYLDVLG
Turning to `Cc1c(-c2cnn(C)c2)nn(-c2ccccc2)c1NC(=O)N[C@@H]1c2ccccc2C2(CC2)[C@H]1O` (relative stereo) [Example 55, 1-(1′,4-dimethyl-1-phenyl-1H,1′H-[3,4′-bipyrazol]-5-yl)-3-(trans-2′-hydroxy-2′,3′-dihydrospiro[cyclopropane-1,1′-inden]-3′-yl)urea], the IC50 is less than 100 nM.
Turning to `Cc1ncc(-c2nn(-c3ccccc3)c(NC(=O)N[C@@H]3c4ccccc4C4(CC4)[C@H]3O)c2C)cn1` (relative stereo) [Example 56, 1-(trans-2′-hydroxy-2′,3′-dihydrospiro[cyclopropane-1,1′-inden]-3′-yl)-3-(4-methyl-3-(2-methylpyrimidin-5-yl)-1-phenyl-1H-pyrazol-5-yl)urea], the half-inhibitory concentration (IC50) was less than 100 nM.
As for `COc1ncc(-c2nn(-c3ccccc3)c(NC(=O)N[C@@H]3c4ccccc4C4(CC4)[C@H]3O)c2C)cn1` (relative stereo) [Example 57, 1-(trans-2′-hydroxy-2′,3′-dihydrospiro[cyclopropane-1,1′-inden]-3′-yl)-3-(3-(2-methoxypyrimidin-5-yl)-4-methyl-1-phenyl-1H-pyrazol-5-yl)urea], the half-inhibitory concentration (IC50) was less than 100 nM.
For the compound `Cc1c(-c2cnn(C)c2)nn(-c2ccccc2)c1NC(=O)N[C@@H]1c2cc(F)c(F)cc2C2(CC2)[C@H]1O` (relative stereo) [Example 58, 1-(trans-5′,6′-difluoro-2′-hydroxy-2′,3′-dihydrospiro[cyclopropane-1,1′-inden]-3′-yl)-3-(1′,4-dimethyl-1-phenyl-1H,1′H-[3,4′-bipyrazol]-5-yl)urea], the IC50 was less than 100 nM.
With `COc1nn(-c2ccccc2)c(NC(=O)N[C@@H]2c3ccccc3C3(CC3)[C@H]2O)c1C` (relative stereo) [Example 60, 1-(trans-2′-hydroxy-2′,3′-dihydrospiro[cyclopropane-1,1′-inden]-3-yl)-3-(3-methoxy-4-methyl-1-phenyl-1H-pyrazol-5-yl)urea], the half-inhibitory concentration (IC50) is less than 100 nM.
Take `CCOc1nn(-c2ccccc2)c(NC(=O)N[C@@H]2c3ccccc3C3(CC3)[C@H]2O)c1C` (relative stereo) [Example 61, 1-(3-ethoxy-4-methyl-1-phenyl-1H-pyrazol-5-yl)-3-(trans-2′-hydroxy-2′,3′-dihydrospiro[cyclopropane-1,1-inden]-3-yl)urea]: the IC50 is less than 100 nM.
As for `COc1nn(-c2ccccc2)c(NC(=O)N[C@@H]2c3cc(F)c(F)cc3C3(CC3)[C@H]2O)c1C` (relative stereo) [Example 62, 1-(trans-5′,6′-difluoro-2′-hydroxy-2′,3′-dihydrospiro[cyclopropane-1,1′-inden]-3′-yl)-3-(3-methoxy-4-methyl-1-phenyl-1H-pyrazol-5-yl)urea], the IC50 is less than 100 nM.
Turning to `Cc1c(-c2cnn(C)c2)nn(-c2ccccc2)c1NC(=O)N[C@@H]1c2cc(F)ccc2C2(CC2)[C@H]1O` (relative stereo) [Example 63, 1-(1′,4-dimethyl-1-phenyl-1H,1′H-[3,4′-bipyrazol]-5-yl)-3-(trans-5′-fluoro-2′-hydroxy-2′,3′-dihydrospiro[cyclopropane-1,1′-inden]-3′-yl)urea], the half-inhibitory concentration (IC50) was less than 100 nM.
On to `Cc1c(-c2cnn(C)c2)nn(-c2ccccc2)c1NC(=O)N[C@@H]1c2ccc(F)cc2C2(CC2)[C@H]1O` (relative stereo) [Example 64, 1-(1′,4-dimethyl-1-phenyl-1H,1′H-[3,4′-bipyrazol]-5-yl)-3-(trans-6′-fluoro-2′-hydroxy-2′,3′-dihydrospiro[cyclopropane-1,1′-inden]-3′-yl)urea], for which the IC50 was less than 100 nM.
Consider `Cc1c(NC(=O)N[C@@H]2c3ccccc3C(C)(C)C[C@H]2O)n(-c2ccccc2)[nH]c1=O` (relative stereo) [Example 95, 1-(trans-2-hydroxy-4,4-dimethyl-1,2,3,4-tetrahydronaphthalen-1-yl)-3-(4-methyl-5-oxo-2-phenyl-2,5-dihydro-1H-pyrazol-3-yl)urea], for which the IC50 was less than 100 nM.
Take `COc1nn(-c2ccccc2)c(NC(=O)N[C@@H]2c3ccccc3C(C)(C)C[C@H]2O)c1C` (relative stereo) [Example 97, 1-(trans-2-hydroxy-4,4-dimethyl-1,2,3,4-tetrahydronaphthalen-1-yl)-3-(3-methoxy-4-methyl-1-phenyl-1H-pyrazol-5-yl)urea]: the IC50 is less than 100 nM.
`COC(=O)c1ccc2c(c1)[C@@H](NC(=O)Nc1c(C)c(C)nn1-c1ccccc1)[C@H](O)CC2(C)C` (relative stereo) [Example 99, trans-methyl 8-(3-(3,4-dimethyl-1-phenyl-1H-pyrazol-5-yl)ureido)-7-hydroxy-5,5-dimethyl-5,6,7,8-tetrahydronaphthalene-2-carboxylate]: the half-inhibitory concentration (IC50) was less than 100 nM.
Turning to `Cc1c(-c2cnn(C)c2)nn(-c2ccccc2)c1NC(=O)N[C@@H]1c2ccccc2CC[C@H]1O` (relative stereo) [Example 101, 1-(1′,4-dimethyl-1-phenyl-1H,1′H-[3,4′-bipyrazol]-5-yl)-3-(trans-2-hydroxy-1,2,3,4-tetrahydronaphthalen-1-yl)urea], the half-maximal inhibitory concentration (IC50) is less than 100 nM.
As for `COCc1ccc2c(c1)[C@@H](NC(=O)Nc1c(C)c(-c3cnn(C)c3)nn1-c1ccccc1)[C@H](O)CC2(C)C` (relative stereo) [Example 102, 1-(1′,4-dimethyl-1-phenyl-1H,1′H-[3,4′-bipyrazol]-5-yl)-3-(trans-2-hydroxy-7-(methoxymethyl)-4,4-dimethyl-1,2,3,4-tetrahydronaphthalen-1-yl)urea], the concentration for half-maximal inhibition (IC50) is less than 100 nM.
In the case of `Cc1c(-c2cnn(C)c2)nn(-c2ccccc2)c1NC(=O)N[C@@H]1c2cc(Cl)ccc2C(C)(C)C[C@H]1O` (relative stereo) [Example 104, 1-(trans-7-chloro-2-hydroxy-4,4-dimethyl-1,2,3,4-tetrahydronaphthalen-1-yl)-3-(1′,4-dimethyl-1-phenyl-1H,1′H-[3,4′-bipyrazol]-5-yl)urea], the IC50 is less than 100 nM.
As to `Cc1c(-c2cnn(C)c2)nn(-c2ccccc2)c1NC(=O)N[C@@H]1c2ccccc2C(C)(C)C[C@H]1O` (relative stereo) [Example 105, 1-(1′,4-dimethyl-1-phenyl-1H,1′H-[3,4′-bipyrazol]-5-yl)-3-(trans-2-hydroxy-4,4-dimethyl-1,2,3,4-tetrahydronaphthalen-1-yl)urea], the 50% inhibitory concentration (IC50) was less than 100 nM.
In the case of `Cc1c(-c2ccc(=O)n(C)c2)nn(-c2ccccc2)c1NC(=O)N[C@@H]1c2ccccc2C(C)(C)C[C@H]1O` (relative stereo) [Example 106, 1-(trans-2-hydroxy-4,4-dimethyl-1,2,3,4-tetrahydronaphthalen-1-yl)-3-(4-methyl-3-(1-methyl-6-oxo-1,6-dihydropyridin-3-yl)-1-phenyl-1H-pyrazol-5-yl)urea], the IC50 is less than 100 nM.
For the compound `Cc1c(-c2ccn(C)c(=O)c2)nn(-c2ccccc2)c1NC(=O)N[C@@H]1c2ccccc2C(C)(C)C[C@H]1O` (relative stereo) [Example 107, 1-(trans-2-hydroxy-4,4-dimethyl-1,2,3,4-tetrahydronaphthalen-1-yl)-3-(4-methyl-3-(1-methyl-2-oxo-1,2-dihydropyridin-4-yl)-1-phenyl-1H-pyrazol-5-yl)urea], the IC50 is less than 100 nM.
On to `Cc1ncc(-c2nn(-c3ccccc3)c(NC(=O)N[C@@H]3c4ccccc4CC[C@H]3O)c2C)cn1` (relative stereo) [Example 118, 1-(trans-2-hydroxy-1,2,3,4-tetrhydronaphthalen-1-yl)-3-(4-methyl-3-(2-methylpyrimidin-5-yl)-1-phenyl-1H-pyrazol-5-yl)urea], for which the IC50 is less than 100 nM.
Consider `COc1ncc(-c2nn(-c3ccccc3)c(NC(=O)N[C@@H]3c4ccccc4CC[C@H]3O)c2C)cn1` (relative stereo) [Example 119, 1-(trans-2-hydroxy-1,2,3,4-tetrahydronaphthalen-1-yl)-3-(3-(2-methoxypyrimidin-5-yl)-4-methyl-1-phenyl-1H-pyrazol-5-yl)urea], for which the 50% inhibitory concentration (IC50) is less than 100 nM.
On to `CNC(=O)c1nn(-c2ccccc2)c(NC(=O)N[C@@H]2c3cc(COC)ccc3C(C)(C)C[C@H]2O)c1C` (relative stereo) [Example 120, 5-(3-(trans-2-hydroxy-7-(methoxymethyl)-4,4-dimethyl-1,2,3,4-tetrahydronaphthalen-1-yl)ureido)-N,4-dimethyl-1-phenyl-1H-pyrazole-3-carboxamide], for which the half-maximal inhibitory concentration (IC50) was less than 100 nM.
With `Cc1nn(-c2ccccc2)c(NC(=O)N[C@@H]2c3ccccc3CC[C@H]2O)c1C` (relative stereo) [Example 121, 1-(3,4-dimethyl-1-phenyl-1H-pyrazol-5-yl)-3-(trans-2-hydroxy-1,2,3,4-tetrahydronaphthalen-1-yl)urea] the figure was less than 100 nM.
Take `Cc1c(OCC2CCN(C)CC2)nn(-c2ccccc2)c1NC(=O)N[C@@H]1c2ccccc2C(C)(C)C[C@H]1O` (relative stereo) [Example 122, 1-(trans-2-hydroxy-4,4-dimethyl-1,2,3,4-tetrahydronaphthalen-1-yl)-3-(4-methyl-3-((1-methylpiperidin-4-yl)methoxy)-1-phenyl-1H-pyrazol-5-yl)urea]: the IC50 was less than 100 nM.
`Cc1c(OCC2CCN(C)CC2)nn(-c2ccccc2)c1NC(=O)N[C@@H]1c2ccccc2CC[C@H]1O` (relative stereo) [Example 123, 1-(trans-2-hydroxy-1,2,3,4-tetrahydronaphthalen-1-yl)-3-(4-methyl-3-((1-methylpiperidin-4-yl)methoxy)-1-phenyl-1H-pyrazol-5-yl)urea]: the concentration for half-maximal inhibition (IC50) was less than 100 nM.

Values taken from patent publication US10351575B2, “Bicyclic urea, thiourea, guanidine and cyanoguanidine compounds useful for the treatment of pain” (Array BioPharma Inc., priority 2012, dated 2019).
